The results in this text go back to patent publication US11046699B2, “Pyrazolo-pyrimidin-amino-cycloalkyl compounds and their therapeutic uses” (RAPT THERAPEUTICS, INC., priority 2018, dated 2021).

Molecules are shown by their SMILES.

Sequence of GCN2 (Q9P2K8 whole entry): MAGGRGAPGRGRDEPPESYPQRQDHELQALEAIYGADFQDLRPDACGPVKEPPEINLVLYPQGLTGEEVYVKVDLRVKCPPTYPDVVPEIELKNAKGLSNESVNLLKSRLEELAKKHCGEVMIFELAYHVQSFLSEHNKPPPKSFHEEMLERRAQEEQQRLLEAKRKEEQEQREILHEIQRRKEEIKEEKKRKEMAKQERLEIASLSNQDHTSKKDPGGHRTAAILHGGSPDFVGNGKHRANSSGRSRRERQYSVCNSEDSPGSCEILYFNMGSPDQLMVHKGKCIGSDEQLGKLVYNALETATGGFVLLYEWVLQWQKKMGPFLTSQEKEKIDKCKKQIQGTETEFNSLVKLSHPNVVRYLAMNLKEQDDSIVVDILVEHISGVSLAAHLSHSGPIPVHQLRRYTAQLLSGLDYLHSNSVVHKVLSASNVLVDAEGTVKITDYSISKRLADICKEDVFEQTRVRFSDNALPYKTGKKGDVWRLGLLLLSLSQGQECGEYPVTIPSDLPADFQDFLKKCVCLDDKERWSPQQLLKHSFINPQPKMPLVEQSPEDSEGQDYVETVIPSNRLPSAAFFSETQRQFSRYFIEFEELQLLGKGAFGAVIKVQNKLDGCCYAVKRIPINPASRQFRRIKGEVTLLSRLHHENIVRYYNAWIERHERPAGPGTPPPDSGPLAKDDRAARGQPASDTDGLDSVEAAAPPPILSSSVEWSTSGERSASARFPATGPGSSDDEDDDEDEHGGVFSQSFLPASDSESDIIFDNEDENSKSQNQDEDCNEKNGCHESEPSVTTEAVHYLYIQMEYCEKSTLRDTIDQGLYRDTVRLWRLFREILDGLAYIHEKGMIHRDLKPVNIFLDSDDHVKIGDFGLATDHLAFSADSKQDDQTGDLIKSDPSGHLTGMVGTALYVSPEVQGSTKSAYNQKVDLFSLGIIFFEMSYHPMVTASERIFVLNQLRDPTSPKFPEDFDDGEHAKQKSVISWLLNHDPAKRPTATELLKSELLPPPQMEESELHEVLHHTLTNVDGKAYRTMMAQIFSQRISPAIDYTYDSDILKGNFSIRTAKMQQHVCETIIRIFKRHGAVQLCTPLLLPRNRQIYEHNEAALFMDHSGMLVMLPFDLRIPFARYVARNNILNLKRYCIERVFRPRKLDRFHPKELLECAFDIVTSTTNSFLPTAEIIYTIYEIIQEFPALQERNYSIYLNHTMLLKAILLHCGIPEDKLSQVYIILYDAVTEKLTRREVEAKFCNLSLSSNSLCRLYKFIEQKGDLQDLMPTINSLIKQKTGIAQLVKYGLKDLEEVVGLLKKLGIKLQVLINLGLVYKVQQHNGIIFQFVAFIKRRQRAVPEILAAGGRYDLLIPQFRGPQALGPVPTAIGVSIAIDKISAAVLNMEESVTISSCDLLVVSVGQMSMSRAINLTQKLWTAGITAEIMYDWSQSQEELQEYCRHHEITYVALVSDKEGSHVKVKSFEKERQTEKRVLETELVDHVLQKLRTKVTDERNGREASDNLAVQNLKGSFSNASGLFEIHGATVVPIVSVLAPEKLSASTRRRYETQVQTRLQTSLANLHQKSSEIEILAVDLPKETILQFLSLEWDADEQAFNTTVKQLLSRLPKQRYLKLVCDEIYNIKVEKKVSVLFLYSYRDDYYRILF

The assay has as its target GCN2 (Homo sapiens, UniProt Q9P2K8). Kind of assay: GCN2 enzymatic endpoint assay: phosphorylation of GFP-eIF2α measured by TR-FRET (Lanthascreen). It is filed as biochemical. The note with it: tested as described in Example 77; compound and/or hydrochloride, dihydrochloride or trifluoroacetic acid salt; read-out: IC 50 Activity. The gist of the method:
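Kinase activity is measured as phosphorylation of GFP-labelled eIF2α (80 nM) with ATP at 2 μM. Incubation runs 90 minutes at room temperature before EDTA quench and terbium-antibody detection.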
As for `Cc1nnc(-c2ccc(-n3nc(Br)c4cnc(N[C@@H]5CC[C@@H](C(=O)N6CCN(C)C(=O)C6)C5)nc43)cc2F)o1` [4-((1R,3R)-3-((3-bromo-1-(3-fluoro-4-(5-methyl-1,3,4-oxadiazol-2-yl)phenyl)-1H-pyrazolo[3,4-d]pyrimidin-6-yl)amino)cyclo-pentane-1-carbonyl)-1-methylpiperazin-2-one], the IC50 lay in the range of 25 to 200 nM.
Consider `CCc1nnc(-c2ccc(-n3nc(Br)c4cnc(N[C@@H]5CC[C@@](C)(C(=O)NC)C5)nc43)cc2)s1` [(1R,3R)-3-[[3-bromo-1-[4-(5-ethyl-1,3,4-thiadiazol-2-yl)phenyl]pyrazolo[3,4-d]pyrimidin-6-yl]amino]-N,1-dimethyl-cyclopentanecarboxamide], for which the IC50 fell in the range of 25 to 200 nM.
Under `Cc1nnc(-c2ccc(-n3nc(Br)c4cnc(N[C@@H]5CC[C@@]6(CCNC6=O)C5)nc43)cc2CCC#N)s1` stands 25 to 200 nM.
With `CNCCc1cc(-n2nc(Br)c3cnc(N[C@@H]4CC[C@@](C)(C(=O)NC)C4)nc32)ccc1-c1ncco1` [(1R,3R)-3-[[3-bromo-1-[3-[2-(methylamino)ethyl]-4-oxazol-2-yl-phenyl]pyrazolo[3,4-d]pyrimidin-6-yl]amino]-N,1-dimethyl-cyclopentanecarboxamide] the figure was 25 to 200 nM.
With `CC(=O)N1CCC(Nc2ncc3c(Br)nn(-c4cc(F)c5ncccc5c4)c3n2)CC1` [1-[4-[[3-bromo-1-(8-fluoro-6-quinolyl)pyrazolo[3,4-d]pyrimidin-6-yl]amino]-1-piperidyl]ethanone] the figure was 25 to 200 nM; with `COCCNC(=O)[C@@]1(C)CC[C@@H](Nc2ncc3c(Br)nn(-c4ccc5ncccc5c4)c3n2)C1` [(1S,3R)-3-((3-bromo-1-(quinolin-6-yl)-1H-pyrazolo[3,4-d]pyrimidin-6-yl)amino)-N-(2-methoxyethyl)-1-methylcyclopentane-1-carboxamide], 500 to 1000 nM.
Consider `CNC(=O)[C@]1(C)CC[C@@H](Nc2ncc3c(Br)nn(-c4cc(F)c5nc(C(C)(C)N)ccc5c4)c3n2)C1` [(1R,3R)-3-[[1-[2-(1-amino-1-methyl-ethyl)-8-fluoro-6-quinolyl]-3-bromo-pyrazolo[3,4-d]pyrimidin-6-yl]amino]-N,1-dimethyl-cyclopentanecarboxamide], for which the IC50 is 25 to 200 nM.
In the case of `CNC(=O)[C@]1(C)CC[C@@H](Nc2ncc3c(Br)nn(-c4ccc5c(c4)C(C)(C)CO5)c3n2)C1` [(1R,3R)-3-[[3-bromo-1-(3,3-dimethyl-2H-benzofuran-5-yl)pyrazolo[3,4-d]pyrimidin-6-yl]amino]-N,1-dimethyl-cyclopentane-carboxamide], the IC50 is 25 to 200 nM.
Under `CNC(=O)[C@]1(C)CCC(Nc2ncc3c(Br)nn(-c4ccc5c(c4)NC(=O)CC5)c3n2)C1` (stereo partly drawn) [(1R)-3-[[3-bromo-1-(2-oxo-3,4-dihydro-1H-quinolin-7-yl)pyrazolo[3,4-d]pyrimidin-6-yl]amino]-N,1-dimethyl-cyclopentane-carboxamide] stands 25 to 200 nM; under `CNC(=O)[C@]1(C)CC[C@@H](Nc2ncc3c(Br)nn(-c4ccc(-c5cncn5C)cc4)c3n2)C1` [(1R,3R)-3-[[3-bromo-1-[4-(3-methylimidazol-4-yl)phenyl]pyrazolo[3,4-d]pyrimidin-6-yl]amino]-N,1-dimethyl-cyclopentane-carboxamide], 25 to 200 nM.
Under `Cc1nc2c(F)cc(-n3nc(Br)c4cnc(N[C@@H]5CC[C@@H](C(=O)N6CCN(C)C(=O)C6)C5)nc43)cc2cc1F` [4-((1R,3R)-3-((3-bromo-1-(3,8-difluoro-2-methylquinolin-6-yl)-1H-pyrazolo[3,4-d]pyrimidin-6-yl)amino)cyclopentane-1-carbonyl)-1-methylpiperazin-2-one] stands 25 to 200 nM; under `CNC(=O)[C@]1(C)CC[C@@H](Nc2ncc3c(Br)nn(-c4ccc(-c5nnc(C)s5)c(CCS(C)(=O)=O)c4)c3n2)C1` [(1R,3R)-3-[[3-bromo-1-[3-(2-methyl-sulfonylethyl)-4-(5-methyl-1,3,4-thiadiazol-2-yl)phenyl]pyrazolo[3,4-d]pyrimidin-6-yl]amino]-N,1-dimethyl-cyclopentanecarboxamide], 25 to 200 nM; under `CNC(=O)[C@]1(C)CC[C@@H](Nc2ncc3c(Br)nn(-c4ccc5nc(NC)ncc5c4)c3n2)C1`, 25 to 200 nM.
With `CNC(=O)[C@]1(C)CC[C@@H](Nc2ncc3c(Br)nn(-c4cc(Cl)cc(C(CN)OC)c4)c3n2)C1` (stereo partly drawn) [(1R,3R)-3-[[1-[3-(2-amino-1-methoxy-ethyl)-5-chloro-phenyl]-3-bromo-pyrazolo[3,4-d]pyrimidin-6-yl]amino]-N,1-dimethyl-cyclopentanecarboxamide; 2,2,2-trifluoroacetic acid] the figure was 25 to 200 nM; with `CNC(=O)[C@]1(C)CC[C@@H](Nc2ncc3c(Br)nn(-c4cc(Cl)cc(C(=O)NC5CNC5)c4)c3n2)C1` [N-(azetidin-3-yl)-3-[3-bromo-6-[[(1R,3R)-3-methyl-3-(methylcarbamoyl)cyclopentyl]amino]pyrazolo[3,4-d]pyrimidin-1-yl]-5-chloro-benzamide], 25 to 200 nM.
On to `CNC(=O)[C@]1(C)CC[C@@H](Nc2ncc3c(Br)nn(-c4ccc5c(c4)OCC(=O)N5CCO)c3n2)C1` [(1R,3R)-3-[[3-bromo-1-[4-(2-hydroxy-ethyl)-3-oxo-1,4-benzoxazin-7-yl]pyrazolo[3,4-d]pyrimidin-6-yl]amino]-N,1-dimethyl-cyclopentanecarboxamide], for which the IC50 is 25 to 200 nM.
With `O=C(CO)N1CCN(C(=O)[C@@H]2CC[C@@H](Nc3ncc4c(Br)nn(-c5ccc6ncccc6c5)c4n3)C2)CC1` [1-(4-((1R,3R)-3-((3-bromo-1-(quinolin-6-yl)-1H-pyrazolo[3,4-d]pyrimidin-6-yl)amino)cyclopentane-1-carbonyl)piperazin-1-yl)-2-hydroxyethan-1-one] the figure was 25 to 200 nM.
With `CNC(=O)C1(C)CC[C@@H](Nc2ncc3c(Br)nn(-c4ccc5nc(OC)ccc5c4)c3n2)C1` (stereo partly drawn) [(3R)-3-[[3-bromo-1-(2-methoxy-6-quinolyl)pyrazolo[3,4-d]pyrimidin-6-yl]amino]-N,1-dimethyl-cyclopentanecarboxamide] the figure was 25 to 200 nM; with `O=C(NCCc1cnc[nH]1)[C@@H]1CC[C@@H](Nc2ncc3c(Br)nn(-c4ccc5ncccc5c4)c3n2)C1` [(1R,3R)-N-(2-(1H-imidazol-5-yl)ethyl)-3-((3-bromo-1-(quinolin-6-yl)-1H-pyrazolo [3,4-d]pyrimidin-6-yl)amino)cyclopentane-1-carboxamide], 200 to 500 nM.
With `CNC(=O)[C@]1(C)CC[C@@H](Nc2ncc3c(Br)nn(-c4cc(CCN)c5cnccc5c4)c3n2)C1` the figure was less than 25 nM; with `CNC(=O)[C@@H]1CC[C@@H](Nc2ncc3c(Br)nn(-c4cc(OC)c5ncccc5c4)c3n2)C1` [(1R,3R)-3-[[3-bromo-1-(8-methoxy-6-quinolyl)pyrazolo[3,4-d]pyrimidin-6-yl]amino]-N-methyl-cyclopentanecarboxamide], less than 25 nM; with `Cc1nnc(-c2ccc(-n3nc(Br)c4cnc(N[C@@H]5CC[C@@](C)(C(=O)NC6CC6)C5)nc43)cc2CCC#N)s1` [(1R,3R)-3-[[3-bromo-1-[3-(2-cyanoethyl)-4-(5-methyl-1,3,4-thiadiazol-2-yl)phenyl]pyrazolo[3,4-d]pyrimidin-6-yl]amino]-N-cyclopropyl-1-methyl-cyclopentane-carboxamide], 25 to 200 nM.
